According to ChEMBL document CHEMBL4482302, “Inhibitors of rac1 and uses thereof for inducing bronchodilatation” (2018):
Active and inactive are the calls of the source. The calls are words filed in the database; no cut-off is given here.

How the values were obtained:
[1] = target: Ras-related C3 botulinum toxin substrate 1 (Mus musculus, UniProt P63001); assay: Inhibition of Rac1 activation in mouse NIH/3T3 cells lysates pre-incubated for 1 hr before addition of Rac activator stimulation by immunoblot analysis based pull-down assay relative to control; assay type: subcellular, Lysate
[2] = target: Ras-related C3 botulinum toxin substrate 1 (Mus musculus) (UniProt P63001); assay: Inhibition of Rac1 activation in mouse NIH/3T3 cells lysates pre-incubated for 1 hr before addition of Rac activator stimulation by immunoblot analysis based pull-down assay; assay type: subcellular; settings: Lysate
[3] = target: Ras-related C3 botulinum toxin substrate 1 (Mus musculus) (UniProt P63001); assay: Inhibition of Rac1 in mouse NIH/3T3 cells assessed as reduction in Rac activator-stimulated membrane ruffling; assay type: cell-based
[4] = target: Ras-related C3 botulinum toxin substrate 1 (Mus musculus) (UniProt P63001); assay: Inhibition of Rac1 in mouse NIH/3T3 cells assessed as reduction in Rac activator-stimulated cell adhesion measured every 5 mins for 6 hrs by xCELLigence assay; assay type: cell-based
[5] = target: Ras-related C3 botulinum toxin substrate 1 (Mus musculus) (UniProt P63001); assay: Inhibition of Rac1 in mouse NIH/3T3 cells assessed as reduction in Rac activator-stimulated cell migration incubated for 24 hrs; assay type: cell-based
[6] = target: Ras-related C3 botulinum toxin substrate 1 (Mus musculus) (UniProt P63001); assay: Inhibition of mouse Rac1 assessed as decrease in B-max for GTP-binding on Rac1 by mant-GTP binding kinetics real-time assay
[7] = target: Ras-related C3 botulinum toxin substrate 1 (Mus musculus) (UniProt P63001); assay: Binding affinity to mouse Rac1 by SPR assay
[8] = target: Transforming protein RhoA (Mus musculus) (UniProt Q9QUI0); assay: Binding affinity to mouse RhoA by SPR assay
Chain of Transforming protein RhoA (Mus musculus) (Q9QUI0 whole entry): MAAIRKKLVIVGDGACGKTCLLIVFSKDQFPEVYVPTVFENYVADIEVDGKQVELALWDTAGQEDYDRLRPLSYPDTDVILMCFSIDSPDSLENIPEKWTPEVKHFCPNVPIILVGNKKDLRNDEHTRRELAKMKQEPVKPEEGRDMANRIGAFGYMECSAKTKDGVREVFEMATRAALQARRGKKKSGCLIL

[9] = target: Cell division control protein 42 homolog (Mus musculus) (UniProt P60766); assay: Binding affinity to mouse Cdc42 by SPR assay
Chain of Cell division control protein 42 homolog (Mus musculus) (P60766 whole entry, looked up): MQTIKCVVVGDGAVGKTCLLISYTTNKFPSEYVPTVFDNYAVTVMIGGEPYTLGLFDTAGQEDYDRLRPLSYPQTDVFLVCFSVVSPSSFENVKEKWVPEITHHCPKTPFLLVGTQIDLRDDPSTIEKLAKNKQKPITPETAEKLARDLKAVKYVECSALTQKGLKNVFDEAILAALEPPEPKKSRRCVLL

[10] = target: Ras-related C3 botulinum toxin substrate 1 (Mus musculus) (UniProt P63001); assay: Binding affinity to mouse Rac1 in presence of EDTA by SPR assay
[11] = target: Ras-related C3 botulinum toxin substrate 2 (Mus musculus) (UniProt Q05144); assay: Inhibition of mouse Rac2 assessed as decrease in B-max for GTP-binding on Rac1 by mant-GTP binding kinetics real-time assay
[12] = target: Transforming protein RhoA (Mus musculus) (UniProt Q9QUI0); assay: Inhibition of mouse RhoA assessed as decrease in B-max for GTP-binding on Rac1 by mant-GTP binding kinetics real-time assay
[13] = target: Rho-related GTP-binding protein RhoG (Mus musculus) (UniProt P84096); assay: Inhibition of mouse RhoG assessed as decrease in B-max for GTP-binding on Rac1 by mant-GTP binding kinetics real-time assay
Chain of Rho-related GTP-binding protein RhoG (Mus musculus) (P84096 whole entry): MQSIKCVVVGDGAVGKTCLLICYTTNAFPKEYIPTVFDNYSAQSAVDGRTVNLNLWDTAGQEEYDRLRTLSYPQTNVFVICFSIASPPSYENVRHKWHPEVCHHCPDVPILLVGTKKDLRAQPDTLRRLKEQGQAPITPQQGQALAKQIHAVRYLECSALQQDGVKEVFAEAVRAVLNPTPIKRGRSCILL

[14] = target: Ras-related protein Rab-35 (Mus musculus) (UniProt Q6PHN9); assay: Inhibition of mouse Rab35 assessed as decrease in B-max for GTP-binding on Rac1 by mant-GTP binding kinetics real-time assay
Chain of Ras-related protein Rab-35 (Mus musculus) (Q6PHN9 whole entry): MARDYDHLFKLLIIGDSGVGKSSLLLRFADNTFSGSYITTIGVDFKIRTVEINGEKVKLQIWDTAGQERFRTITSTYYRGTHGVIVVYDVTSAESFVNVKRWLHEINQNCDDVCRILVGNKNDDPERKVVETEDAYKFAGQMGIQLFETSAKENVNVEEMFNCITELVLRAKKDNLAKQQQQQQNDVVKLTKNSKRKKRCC

[15] = target: ADP-ribosylation factor 6 (Mus musculus) (UniProt P62331); assay: Inhibition of mouse Arf6 assessed as decrease in B-max for GTP-binding on Rac1 by mant-GTP binding kinetics real-time assay
Chain of ADP-ribosylation factor 6 (Mus musculus) (P62331 whole entry): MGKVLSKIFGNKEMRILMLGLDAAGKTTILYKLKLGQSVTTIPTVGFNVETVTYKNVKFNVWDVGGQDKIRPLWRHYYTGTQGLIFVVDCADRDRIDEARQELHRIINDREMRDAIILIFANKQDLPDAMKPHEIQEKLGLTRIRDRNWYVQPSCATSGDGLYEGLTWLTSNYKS

[16] = target: Ras-related C3 botulinum toxin substrate 1 (Mus musculus) (UniProt P63001); assay: Inhibition of Rac1 in mouse airways smooth muscle cells assessed as reduction in methacholine-induced maximal contraction pre-incubated for 1 hrs before methacholine addition
Mus musculus = assay: Suppression of airway hyperresponsiveness in mouse model of percutaneous sensitization and house dust mite extract intranasal challenge-induced human allergic asthma dosed via nebulization 10 mins before methacholine challenge; assay type: functional, organism-based

## COc1cccc(NS(=O)(=O)c2ccc(N)cc2)c1
[1]
  IC50: 1 nM

## COc1ccccc1NS(=O)(=O)c1ccc(N)cc1
[1]
  IC50: 1 nM

## COc1ccccc1NS(=O)(=O)c1ccc(NC(=O)CSc2ccc(C)cc2)cc1
[1]
  IC50: 1 nM

## COc1ccc(OC)c(NS(=O)(=O)c2ccc(NC(=O)CCOc3ccc(C)cc3)cc2)c1
[1]
  IC50: 1 nM

## COc1ccccc1NS(=O)(=O)c1ccc(NC(=O)CCSc2ccc(C)cc2)cc1
[1]
  IC50: 1 nM

## CCN(CC)CCCC(C)Nc1nc(C)cc(Nc2ccc3nc(C)cc(N)c3c2)n1 (centres undefined)
[2]
  inhibition: Active
[3]
  inhibition: Dose-dependent effect
[4]
  inhibition: Active
[5]
  inhibition: Active

## COc1ccc(OC)c(NS(=O)(=O)c2ccc(NC(=O)CCSc3ccc(C)cc3)cc2)c1
[6]
  inhibition: Active
[2]
  inhibition: Active
[7]
  Activity: Active
[8]
  Activity: inactive
[9]
  Activity: inactive
[10]
  Activity: Active
[11]
  inhibition: Active
[12]
  inhibition: inactive
[13]
  inhibition: inactive
[14]
  inhibition: inactive
[15]
  inhibition: inactive
[3]
  inhibition: Dose-dependent effect
[4]
  inhibition: Active
[5]
  inhibition: Active
[16]
  inhibition: Active
Mus musculus
  Activity: Active
[1]
  IC50: 1 nM

## COc1ccccc1NS(=O)(=O)c1ccc([N+](=O)[O-])cc1
[1]
  IC50: 1 nM

## C=CC(=O)Nc1ccc(S(=O)(=O)Nc2cc(OC)ccc2OC)cc1
[1]
  IC50: 0.1 nM

## COc1ccc(NS(=O)(=O)c2ccc(NC(=O)CCSc3ccc(C)cc3)cc2)c(OC)c1
[1]
  IC50: 30 nM
